According to patent US20140243415A1, “COMPOUNDS INHIBITING GALECTIN-1 EXPRESSION, CANCER CELL PROLIFERATION, INVASION, AND TUMORIGENESIS” (ONCOETHIX SA, priority 2011, published 2014):

How the values were obtained:
[1] = tested on: wee1 (serine 642); experiment: Western blot of phosphorylated wee1 in SQ20B; type: cell-based, human; details: 3 μM OTX-008 for 72 h
Description: Cells were lysed in buffer containing 50 mM HEPES (pH 7.6), 150 mM NaCl, 1% Triton X-100, 2 mM sodium vanadate, 100 mM NaF, and 0.4 mg/ml phenylmethylsulfonyl fluoride. Equal amounts of protein (30 μg/lane) were subjected to SDS-PAGE and transferred to nitrocellulose membranes. Membranes were blocked with 5% milk in 0.05% Tween 20/phosphate-buffered saline and then incubated with the primary antibody overnight. Membranes were then washed and incubated with the secondary antibody conjugated to horseradish peroxidase. Bands were visualized by using the enhanced chemiluminescence Western blotting detection system. Densitometric analysis was performed under conditions that yielded a linear response. The following antibodies were used: anti-p-cdc2 (tyr15), anti-p-wee1 (ser642), anti-p-p44/42 MAPK (thr202/tyr204), anti-p44/42, anti-p-AKT (ser473), anti-AKT, anti-p-S6 (ser235/236) (Cell Signaling, Saint Quentin Yvelines, France), anti-p-PKCα (ser657) (BD Biosciences, Le-Pont-de-Claix, France) and anti-galectin-1 (Abcam, Cambridge, Mass., USA). All antibodies were used at a 1:1000 dilution.
To study the mechanism of OTX-008-induced inhibition of cell proliferation, the effect of OTX-008 on cell cycle in SQ20B cells was examined (FIG. 5B). […] Activation of cdc2 (cdk1) by de-phosphorylation of tyrosine 15 is required for G2/M transition. […]

[2] = molecular target: T1, galectin-1 (Homo sapiens, UniProt P09382); experiment: Western blot of galectin-1 in SQ20B cells; type: cell-based; details: 3 μM OTX-008, 48 and 72 h exposure
T1 construct: Western Blot of galectin-1 on SQ20B cells treated with 3 μM OTX-008 for 24 h, 48 h and 72 h; endogenous in cells; host or cells: SQ20B (ATCC)
Description: FIG. 3. Effects of OTX-008 on galectin-1 expression and localization. A—Western Blot of galectin-1 on SQ20B cells treated with 3 μM OTX-008 for 24 h, 48 h and 72 h. B and C—Immunofluorescence of galectin-1 on SQ20B cells treated with 3 μM OTX-008 for 24 and 48 h. B—OTX-008 treatment decreases galectin-1 immunostaining in SQ20B cells. C—Galectin-1 translocates into the nucleus after OTX-008 exposure. D—Western Blot of p-AKTser473, AKT, p-S6, p-ERK1/2, ERK and p-PKCα in SQ20B cells treated with 3 μM OTX-008 for 10 min, 1 h, 2 h, 5 h and 24 h.
FIG. 4. OTX-008-induced galectin-1 oxydation and degradation by the proteosome system A—Western Blot of galectin-1 on SQ20B cells treated 48 h with 10 μM N-acetylcysteine (NAC), 55 μM β-mercaptoethanol (βME), 1 mM Tempol and 10 μM co-enzyme Q10 (Q10) with or without 3 μM OTX-008. B—Western Blot of galectin-1 on SQ20B cells treated 48 h with 3 μM OTX-008, pretreated 2 h with proteasome inhibitor Bortezomib (10 nM) and then treated 48 h with 3 μM OTX-008 (BTZ—OTX-008) or treated 48 h with 10 nM Bortezomib+3 μM OTX-008 (BTZ+OTX-008).
Cells were lysed in buffer containing 50 mM HEPES (pH 7.6), 150 mM NaCl, 1% Triton X-100, 2 mM sodium vanadate, 100 mM NaF, and 0.4 mg/ml phenylmethylsulfonyl fluoride. Equal amounts of protein (30 μg/lane) were subjected to SDS-PAGE and transferred to nitrocellulose membranes. […]

[3] = tested on: cultured fibroblasts; experiment: Antiproliferative effect in fibroblasts; type: cell-based
[4] = tested on: SQ20B cells; experiment: Matrigel invasion assay; type: cell-based, human
Description: (§1) FIG. 5. Modulation of the galectin-1/semaphorin-3A/neuropilin system in SQ20B cells. A—Effects of galectin-1 (Gall), semaphorin-3A (Sema3A), lactose, with or without four different concentrations of OTX-008 on SQ20B growth at day 6. Embedded figure: Proliferation assay of SQ20B and SQ-shGAL1. B—In vitro matrigel invasion assay of SQ20B exposed to […] galectin-1, 1 μg/ml semaphorin-3A, 200 ng/ml lactose or 10 μM UO126 with or without 3 μM OTX-008. Embedded figure: In vitro matrigel invasion assay of SQ20B and SQ-shGAL1. Invasion was quantified after 48 h by counting the average number of invaded cells.
8 μm membranes were coated with Matrigel (50 μg). The inserts were placed within a 24-well chamber containing 0.6 ml of RPMI 1640 medium with 20% fetal bovine serum as chemoattractant. 10^5 cells were seeded into the inserts suspended in 0.3 ml of serum-free RPMI. After incubation for 48 h at 37° C., the upper surface of the filter was scraped to remove non-invasive cells. Invasive cells were fixed and stained with a Diff Quik detection Kit (Dade Behring, Paris, France). For quantification, the average number of invading cells per field was assessed by counting 9 random fields under a light microscope (400×).
(§2) Galectin-1 may form extracellular lattices counteracting the inhibitory properties of semaphorin-3A on neuropilin-1, eventually leading to the modulation of the vascular endothelial growth factor (VEGFR) and platelet derived growth factor (PDGFR) receptors, fibronectin, and laminin activity SQ20B cells expressed significant mRNA and protein levels of semaphorin-3A and neuropilin-1, PDGFRa&(, VEGF A-D, and VEGFR1-3 (Supplementary FIG. 2A). Thus, SQ20B cells were selected to evaluate the effects of OTX-008 on galectin-1/semaphorin-3A interactions. No difference between SQ20B cells growing in plastic or fibronectin- and laminin-coated plates. […] Galectin-1 and semaphorin-3A induced invasion was inhibited by OTX-008 mimicking the effects of lactose in this model.

[5] = tested on: SQ20B cells; experiment: In vitro growth inhibition assay; type: cell-based, human; details: SQ20B, OTX-008 added to semaphorin-3A or lactose
Description: as §1
For proliferation assay, cells were seeded in 96-well tissue culture plates at a density of 1.5×10^3 cells/well. MTT assay was conducted daily to determine the number of viable cells in untreated control and treated group. Growth inhibition curves were plotted as a percentage of cells for each experimental condition.
as §2

T1 sequence (P09382 whole entry): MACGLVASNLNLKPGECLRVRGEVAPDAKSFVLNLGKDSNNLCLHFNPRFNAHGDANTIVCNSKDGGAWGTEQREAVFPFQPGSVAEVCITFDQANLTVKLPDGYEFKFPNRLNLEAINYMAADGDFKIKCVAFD

## CN(C)CCNC(=O)COc1c2cccc1Cc1cccc(c1OCC(=O)NCCN(C)C)Cc1cccc(c1OCC(=O)NCCN(C)C)Cc1cccc(c1OCC(=O)NCCN(C)C)C2 [OTX-008]
[1]
  wee1 phosphorylation on serine 642: decreased inactivating phosphorylation of wee1
[2]
  galectin-1 protein expression: decreased galectin-1 protein expression
[3]
  antiproliferative effect: no antiproliferative effect
[4]; 48 h, 1 g/ml galectin-1, 1 μg/ml semaphorin-3A, 10 μM UO126, 3 μM OTX-008
  invasion of SQ20B cells, agent alone: inhibits proliferation and invasion
[4]; SQ20B, 3 μM OTX-008, 48 h
  galectin-1 and semaphorin-3A induced invasion: inhibited
[5]
  antiproliferative effects in combination with semaphorin-3A or lactose: enhanced the antiproliferative effects
